Test results reported in patent US6506772B1, “Substituted [1,2,4]triazolo[1,5a]pyridine derivatives with activity as adenosine receptor ligands” (Hoffmann-La Roche Inc., priority 2000, dated 2003).
pKi: −log10 of the molar value.

Assays:
[1] = target: T1, HA1 adenosine receptor (Homo sapiens, UniProt P30542); assay: Human adenosine A1 receptor affinity (Ki hA1); format: binding; conditions: affinity to human adenosine A1 receptor
T1 sequence (P30542 1-326): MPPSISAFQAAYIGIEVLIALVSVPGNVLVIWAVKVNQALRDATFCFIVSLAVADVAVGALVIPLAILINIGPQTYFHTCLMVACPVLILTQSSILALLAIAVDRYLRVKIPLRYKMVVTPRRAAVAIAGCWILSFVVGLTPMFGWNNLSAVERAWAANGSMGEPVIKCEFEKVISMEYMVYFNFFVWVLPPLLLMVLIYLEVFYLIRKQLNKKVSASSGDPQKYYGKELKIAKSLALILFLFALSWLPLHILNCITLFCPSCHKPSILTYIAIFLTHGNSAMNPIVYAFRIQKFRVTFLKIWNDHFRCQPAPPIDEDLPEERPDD

[2] = target: T2, human adenosine A2A receptor (Homo sapiens, UniProt P29274); assay: Human adenosine A2A receptor [3H]-SCH-58261 binding assay; conditions: for pKi: affinity to human adenosine A2A receptor, read-out: Ki HA2A; for selectivity (A1/A2a): calculated ratio of the affinity to the HA1 receptor to the HA2a receptor
T2 construct: expressed in transfected cells; host or cells: CHO cells, Semliki Forest virus expression system; membrane preparation
T2 sequence (P29274 whole entry): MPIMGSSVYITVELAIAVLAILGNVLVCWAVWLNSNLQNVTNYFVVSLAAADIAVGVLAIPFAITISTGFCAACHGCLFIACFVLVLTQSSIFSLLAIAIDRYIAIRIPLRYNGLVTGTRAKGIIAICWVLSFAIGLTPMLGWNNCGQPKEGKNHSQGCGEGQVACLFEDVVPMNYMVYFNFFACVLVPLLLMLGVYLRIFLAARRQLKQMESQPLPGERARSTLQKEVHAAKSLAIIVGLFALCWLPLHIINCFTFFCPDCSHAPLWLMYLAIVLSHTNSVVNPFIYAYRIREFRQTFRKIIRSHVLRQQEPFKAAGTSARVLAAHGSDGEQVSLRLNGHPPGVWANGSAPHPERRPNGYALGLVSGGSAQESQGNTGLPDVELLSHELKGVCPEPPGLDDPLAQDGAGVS

Nc1cc(C(=O)N2CCCCC2)cc2nc(-c3nccs3)nn12 [Example 103, (5-Amino-2-thiazol-2-yl-[1,2,4]triazolo[1,5-a]pyridin-7-yl)-piperidin-1-yl-methanone]
pKi [1]: 5.45
pKi [2]: 7.00
selectivity (A1/A2a) [2]: 35.1

CCCCNC(=O)c1cc(N)n2nc(-c3ccco3)nc2c1 [Example 104, 5-Amino-2-furan-2-yl-[1,2,4]triazolo[1,5-a]pyridine-7-carboxylic acid butylamide]
pKi [1]: 6.65
pKi [2]: 8.31
selectivity (A1/A2a) [2]: 46.0

CCN(CC)C(=O)c1cc(N)n2nc(-c3ccco3)nc2c1 [Example 105, 5-Amino-2-furan-2-yl-[1,2,4]triazolo[1,5-a]pyridine-7-carboxylic acid diethylamide]
pKi [1]: 5.62
pKi [2]: 7.29
selectivity (A1/A2a) [2]: 46.9

Nc1cc(C(=O)N2CCOCC2)cc2nc(-c3ccco3)nn12 [Example 108, (5-Amino-2-furan-2-yl-[1,2,4]triazolo[1,5-a]pyridin-7-yl)-morpholin-4-yl-methanone]
pKi [1]: 5.21
pKi [2]: 6.52
selectivity (A1/A2a) [2]: 20.7

Nc1cc(C(=O)NCc2ccccc2Cl)cc2nc(-c3ccco3)nn12 [Example 109, 5-Amino-2-furan-2-yl-[1,2,4]triazolo[1,5-a]pyridine-7-carboxylic acid 2-chloro-benzylamide]
pKi [1]: 7.23
pKi [2]: 8.54
selectivity (A1/A2a) [2]: 20.2

Nc1cc(C(=O)NCc2ccccc2Br)cc2nc(-c3ccco3)nn12 [Example 110, 5-Amino-2-furan-2-yl-[1,2,4]triazolo[1,5-a]pyridine-7-carboxylic acid 2-bromo-benzylamide]
pKi [1]: 7.19
pKi [2]: 8.59
selectivity (A1/A2a) [2]: 24.5

COc1cc(CNC(=O)c2cc(N)n3nc(-c4ccco4)nc3c2)cc(OC)c1OC [Example 111, 5-Amino-2-furan-2-yl-[1,2,4]triazolo[1,5-a]pyridine-7-carboxylic acid 3,4,5-trimethoxy-benzylamide]
pKi [1]: 5.91
pKi [2]: 7.34
selectivity (A1/A2a) [2]: 27.1

COc1cc(CNC(=O)c2cc(N)n3nc(-c4ccc(C)o4)nc3c2)cc(OC)c1OC [Example 112, 5-Amino-2-(5-methyl-furan-2-yl)-[1,2,4]triazolo[1,5-a]pyridine-7-carboxylic acid 3,4,5-trimethoxy-benzylamide]
pKi [1]: 5.61
pKi [2]: 6.83
selectivity (A1/A2a) [2]: 16.6

Cc1ccc(-c2nc3cc(C(=O)N(C)C4CCCCC4)cc(N)n3n2)s1 [Example 113, 5-Amino-2-(5-methyl-thiophen-2-yl)-[1,2,4]triazolo[1,5-a]pyridine-7-carboxylic acid cyclohexyl-methyl-amide]
pKi [1]: 6.51
pKi [2]: 7.76
selectivity (A1/A2a) [2]: 17.8

Cc1ccc(-c2nc3cc(C(=O)N4CCCCC4)cc(N)n3n2)s1 [Example 114, [5-Amino-2-(5-methyl-thiophen-2-yl)-[1,2,4]triazolo[1,5-a]pyridin-7-yl]-piperidin-1-yl-methanone]
pKi [1]: 6.11
pKi [2]: 7.55
selectivity (A1/A2a) [2]: 27.3

Cc1ccc(-c2nc3cc(C(=O)N4CCOCC4)cc(N)n3n2)s1 [Example 115, [5-Amino-2-(5-methyl-thiophen-2-yl)-[1,2,4]triazolo[1,5-a]pyridin-7-yl]-morpholin-4-yl-methanone]
pKi [1]: 5.54
pKi [2]: 6.65
selectivity (A1/A2a) [2]: 13.2

Cc1ccc(-c2nc3cc(C(=O)N(C)Cc4ccccc4)cc(N)n3n2)s1 [Example 116, 5-Amino-2-(5-methyl-thiophen-2-yl)-[1,2,4]triazolo[1,5-a]pyridine-7-carboxylic acid benzyl-methyl-amide]
pKi [1]: 6.77
pKi [2]: 7.82
selectivity (A1/A2a) [2]: 11.1

Cc1ccc(-c2nc3cc(C(=O)N(Cc4ccccc4)C(C)C)cc(N)n3n2)s1 [Example 117, 5-Amino-2-(5-methyl-thiophen-2-yl)-[1,2,4]triazolo[1,5-a]pyridine-7-carboxylic acid benzyl-isopropyl-amide]
pKi [1]: 6.75
pKi [2]: 8.04
selectivity (A1/A2a) [2]: 19.2

Nc1cc(C(=O)N2CCCC2)cc2nc(-c3ccccc3O)nn12 [Example 118, [5-Amino-2-(2-hydroxy-phenyl)-[1,2,4]triazolo[1,5-a]pyridin-7-yl]-pyrrolidin-1-yl-methanone]
pKi [1]: 5.71
pKi [2]: 6.90
selectivity (A1/A2a) [2]: 15.5

CCCCNC(=O)c1cc(N)n2nc(-c3nccs3)nc2c1 [Example 119, 5-Amino-2-thiazol-2-yl-[1,2,4]triazolo[1,5-a]pyridine-7-carboxylic acid butylamide]
pKi [1]: 6.37
pKi [2]: 7.77
selectivity (A1/A2a) [2]: 25.0

CCN(CC)C(=O)c1cc(N)n2nc(-c3nccs3)nc2c1 [Example 120, 5-Amino-2-thiazol-2-yl-[1,2,4]triazolo[1,5-a]pyridine-7-carboxylic acid diethylamide]
pKi [1]: 5.56
pKi [2]: 7.11
selectivity (A1/A2a) [2]: 35.4

CC(C)N(Cc1ccccc1)C(=O)c1cc(N)n2nc(-c3ccccc3O)nc2c1 [Example 121, 5-Amino-2-(2-hydroxy-phenyl)-[1,2,4]triazolo[1,5-a]pyridine-7-carboxylic acid benzyl-isopropyl-amide]
pKi [1]: 6.69
pKi [2]: 7.77
selectivity (A1/A2a) [2]: 12.0

CC(C)N(C(=O)c1cc(N)n2nc(-c3nccs3)nc2c1)C(C)C [Example 122, 5-Amino-2-thiazol-2-yl-[1,2,4]triazolo[1,5-a]pyridine-7-carboxylic acid diisopropylamide]
pKi [1]: 5.48
pKi [2]: 6.50
selectivity (A1/A2a) [2]: 10.5

Nc1cc(C(=O)NC2CCCCC2)cc2nc(-c3nccs3)nn12 [Example 123, 5-Amino-2-thiazol-2-yl-[1,2,4]triazolo[1,5-a]pyridine-7-carboxylic acid cyclohexylamide]
pKi [1]: 6.16
pKi [2]: 7.36
selectivity (A1/A2a) [2]: 16.0

CN(C(=O)c1cc(N)n2nc(-c3nccs3)nc2c1)C1CCCCC1 [Example 124, 5-Amino-2-thiazol-2-yl-[1,2,4]triazolo[1,5-a]pyridine-7-carboxylic acid cyclohexyl-methyl-amide]
pKi [1]: 5.82
pKi [2]: 7.00
selectivity (A1/A2a) [2]: 15.2

Nc1cc(C(=O)NC2CCc3ccccc32)cc2nc(-c3nccs3)nn12 (stereo not drawn) [Example 125, 5-Amino-2-thiazol-2-yl-[1,2,4]triazolo[1,5-a]pyridine-7-carboxylic acid indan-1-ylamide]
pKi [1]: 6.59
pKi [2]: 7.61
selectivity (A1/A2a) [2]: 10.5

CC(NC(=O)c1cc(N)n2nc(-c3nccs3)nc2c1)c1ccccc1 (stereo not drawn) [Example 126, 5-Amino-2-thiazol-2-yl-[1,2,4]triazolo[1,5-a]pyridine-7-carboxylic acid (1-phenyl-ethyl)-amide]
pKi [1]: 6.63
pKi [2]: 7.26
selectivity (A1/A2a) [2]: 4.3

CCN(CC)C(=O)c1cc(N)n2nc(-c3cccs3)nc2c1 [Example 127, 5-Amino-2-thiophen-2-yl-[1,2,4]triazolo[1,5-a]pyridine-7-carboxylic acid diethylamide]
pKi [1]: 5.71
pKi [2]: 6.98
selectivity (A1/A2a) [2]: 18.9

Nc1cc(C(=O)N2CCCCC2)cc2nc(-c3cccs3)nn12 [Example 129, (5-Amino-2-thiophen-2-yl-[1,2,4]triazolo[1,5-a]pyridin-7-yl)-piperidin-1-yl-methanone]
pKi [1]: 5.84
pKi [2]: 7.00
selectivity (A1/A2a) [2]: 14.5

COc1ccccc1CNC(=O)c1cc(N)n2nc(-c3nccs3)nc2c1 [Example 130, 5-Amino-2-thiazol-2-yl-[1,2,4]triazolo[1,5-a]pyridine-7-carboxylic acid 2-methoxy-benzylamide]
pKi [1]: 6.89
pKi [2]: 7.82
selectivity (A1/A2a) [2]: 8.4

CCCCNC(=O)c1cc(N)n2nc(-c3ccc(Br)o3)nc2c1 [Example 131, 5-Amino-2-(5-bromo-furan-2-yl)-[1,2,4]triazolo[1,5-a]pyridine-7-carboxylic acid butylamide]
pKi [1]: 6.46
pKi [2]: 7.71
selectivity (A1/A2a) [2]: 17.8

Nc1cc(C(=O)N2CCOCC2)cc2nc(-c3ccc(Br)o3)nn12 [Example 132, [5-Amino-2-(5-bromo-furan-2-yl)-[1,2,4]triazolo[1,5-a]pyridin-7-yl]-morpholin-4-yl-methanone]
pKi [1]: 6.12
pKi [2]: 7.47
selectivity (A1/A2a) [2]: 22.7

COc1cc(CNC(=O)c2cc(N)n3nc(-c4ccc(Br)o4)nc3c2)cc(OC)c1OC [Example 133, 5-Amino-2-(5-bromo-furan-2-yl)-[1,2,4]triazolo[1,5-a]pyridine-7-carboxylic acid 3,4,5-trimethoxy-benzylamide]
pKi [1]: 5.71
pKi [2]: 6.84
selectivity (A1/A2a) [2]: 13.3

Cn1cccc1-c1nc2cc(C(=O)N3CCCC3)cc(N)n2n1 [Example 134, [5-Amino-2-(1-methyl-1H-pyrrol-2-yl)-[1,2,4]triazolo[1,5-a]pyridin-7-yl]-pyrrolidin-1-yl-methanone]
pKi [1]: 5.57
pKi [2]: 6.54
selectivity (A1/A2a) [2]: 9.3

CC(C)N(Cc1ccccc1)C(=O)c1cc(N)n2nc(-c3cccn3C)nc2c1 [Example 135, 5-Amino-2-(1-methyl-1H-pyrrol-2-yl)-[1,2,4]triazolo[1,5-a]pyridine-7-carboxylic acid benzyl-isopropyl-amide]
pKi [1]: 5.74
pKi [2]: 6.78
selectivity (A1/A2a) [2]: 10.9
